# Laboratory results from PubChem BioAssay (NCI).
# “And” between values parts separate entries of the source, which are not always exact repeats. Identical values can stand only once.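 Values below derive from 48-hour exposures of cells grown in 96-well plates, with endpoints linearly interpolated between the two concentrations bracketing the appropriate inhibition level. Abbreviation: GI50, concentration required for 50% inhibition of growth. TGI marks complete inhibition of growth.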
# Assays:
# Assay in all cases: DTP human tumour cell line panel, 48 h
# HCT-15 colon = test system: HCT-15 colon
# PC-3 prostate = test system: PC-3 prostate
# IGROV1 ovarian = test system: IGROV1 ovarian
# NCI-H226 lung = test system: NCI-H226 lung
# SF-539 CNS = test system: SF-539 CNS
# CAKI-1 renal = test system: CAKI-1 renal
# SF-268 CNS = test system: SF-268 CNS
# COLO 205 colon = test system: COLO 205 colon
# U251 CNS = test system: U251 CNS
# SW-620 colon = test system: SW-620 colon
Compound,GI50 (HCT-15 colon) [µM],TGI (HCT-15 colon),GI50 (PC-3 prostate) [µM],TGI (PC-3 prostate) [µM],GI50 (IGROV1 ovarian),TGI (IGROV1 ovarian),GI50 (NCI-H226 lung) [µM],TGI (NCI-H226 lung),GI50 (SF-539 CNS) [µM],TGI (SF-539 CNS),GI50 (CAKI-1 renal) [µM],TGI (CAKI-1 renal),GI50 (SF-268 CNS) [µM],TGI (SF-268 CNS),GI50 (COLO 205 colon) [µM],TGI (COLO 205 colon),GI50 (U251 CNS) [µM],TGI (U251 CNS),GI50 (SW-620 colon) [µM],TGI (SW-620 colon)
O=C(N[C@@H]1CCCc2ccccc21)[C@H](CCC(=O)N1CCN(C2CCCCC2)CC1)N1C(=O)[C@@H](N2C(=O)OC[C@@H]2c2ccccc2)[C@H]1/C=C/c1ccccc1,2.97,12.3 µM,2.32,8.35,2.44 µM,41.3 µM,4.29,18.4 µM,1.74,3.42 µM,1.92,6.8 µM,1.3,3.04 µM,1.59,3.52 µM,2.2,5.42 µM,3.06,10.8 µM
O=C1c2c(O)cccc2C(C(=O)CCCCC(=O)C2c3cccc(O)c3C(=O)c3c(O)cccc32)c2cccc(O)c21,1.75,2.6 µM and 5.12 µM,–,0.458,0.664 µM and 1.37 µM,1.74 µM and 3.7 µM,1.1,2.27 µM and 2.89 µM,1.01,0.873 µM and 2.02 µM,3.24,8.43 µM and 9.38 µM,2.25,2.39 µM and 6.86 µM,1.02,3.36 µM and 2.21 µM,1.02,1.01 µM and 2.22 µM,1.73,10.1 µM and 7.17 µM
CC1(C)N=C(N)N=C(N)N1c1ccc(OCC(=O)Nc2cccc(S(=O)(=O)F)c2)c(Cl)c1,–,> 100 µM,–,> 76.6,–,> 100 µM,–,77.2 µM,–,> 100 µM,–,> 100 µM,–,> 41.3 µM,–,> 100 µM,–,> 100 µM,–,> 100 µM
CCN(CC)CCC(=O)Nc1ccc(Cn2nnc3c2C(=O)c2nnn(Cc4ccc(NC(=O)CCN(CC)CC)cc4)c2C3=O)cc1,26.7,> 100 µM,1.98,6.87,0.411 µM,1.37 µM,1.51,3.46 µM,0.295,0.821 µM,> 71.1,> 100 µM,0.338,1.51 µM,0.175,0.333 µM,0.254,0.688 µM,0.395,1.75 µM
CCCCCCCCCCCCCCCC[N+]1(CC)CCCC1,1.35,5.49 µM,0.284,1.15,0.432 µM,1.87 µM,1.18,5.95 µM,0.683,1.98 µM,1.75,11.3 µM,0.454,1.68 µM,0.291,0.731 µM,0.363,1.35 µM,0.41,1.65 µM
C[C@@H](NC(=O)Cc1cc(F)cc(F)c1)C(=O)N[C@@]1(C)N=C(c2ccccc2)c2ccccc2N(C)C1=O,> 78.1,> 100 µM,25.6,> 100,> 65.6 µM,> 100 µM,24,71.9 µM,> 56,> 100 µM,11.7,> 56.8 µM,30.9,> 100 µM,47.2,> 100 µM,> 84.8,> 100 µM,94.4,> 100 µM
Cc1ccc(C2=Nc3c(N)ncnc3NC(c3cccc(Nc4ccnc5cc(C(F)(F)F)ccc45)c3)C2)cc1 (centres undefined),2.82,16.5 µM,2.8,12.5,4.93 µM,90.9 µM,15.2,> 100 µM,2.68,9.26 µM,3.15,15.2 µM,4.47,47.1 µM,2.64,7.03 µM,3.73,15.1 µM,2.87,11.3 µM
COc1cc2oc3ccccc3c(=O)c2cc1CSc1ccccc1N,–,> 100 µM,–,> 100,–,> 100 µM,–,> 100 µM,–,> 100 µM,–,> 100 µM,–,> 100 µM,–,> 95.6 µM,–,> 100 µM,–,> 100 µM
